Values quoted from earlier work, collected in PMC11071064 (Nuclear medicine and biology, 2022).

Assays:
RIPK1 [1] = settings: read-out: EC50 (potency)
[2] = pH 7.4
RIPK1 [3] = settings: read-out: IC50 for binding toward RIPK1
[4] = not given; remark: listed apart in the source

## CN1C(=O)C(Cc2c[nH]c3ccccc23)NC1=S (stereo not shown) [Nec-1]
RIPK1 [1]
  EC50: 490 nM
other
  metabolic stability t1/2: < 5 min

## CN1C(=O)[C@@H](NC(=O)c2n[nH]c(Cc3ccccc3)n2)COc2ccccc21 [Compound 4]
[2]
  solubility: ~ 450 μM
RIPK1 [3]
  IC50: 1 nM
[4]
  log D: 3.8

## CN1C(=O)NC(Cc2c[nH]c3c(Cl)cccc23)C1=O (stereo not shown) [Nec-1s]
RIPK1 [1]
  EC50: 210 nM
other
  metabolic stability t1/2: < 5 min
